This is an account of results in patent publication US20060177374A1, “Treatment of cancer with active vitamin D compounds in combination with radiotherapeutic agents and treatments” (Novacea, Inc., priority 2003, published 2006).

For data set [1] the following is noted: in vivo; cited from earlier work.
A short description of data set [2]: Solubility study of calcitriol in each formulation (light microscope). Type of data set: physicochemical. To be noted: heated to 50° C., cooled to room temperature, highest concentration tested. As to the method:
To further assess the formulations of calcitriol, a solubility study was conducted to evaluate the amount of calcitriol soluble in each formulation. Calcitriol concentrations from 0.1 to 0.6 μg calcitriol/mg formulation were prepared by heating the formulations to 50° C. followed by addition of the appropriate mass of calcitriol. The formulations were then allowed to cool to room temperature and the presence of undissolved calcitriol was determined by a light microscope with and without polarizing light. For each formulation, calcitriol was soluble at the highest concentration tested, 0.6 μg calcitriol/mg formulation.

As for `C=C1/C(=C\C=C2/CCC[C@]3(C)C([C@H](C)CC#CC(C)(C)O)=CC[C@@H]23)C[C@@H](O)C[C@@H]1O` [Ro23-7553], in data set [1], the “Hypercalcemic effect compared to calcitriol” value was “reduced hypercalcemic effect”.

Take `C=C1/C(=C\C=C2/CCC[C@]3(C)[C@@H]([C@H](C)CCCC(C)(C)O)CC[C@@H]23)C[C@@H](O)C[C@@H]1O` [calcitriol, 1α,25-dihydroxyvitamin D3]: the “Calcitriol soluble in formulation” value in data set [2] was ≥ 0.6 μg calcitriol/mg formulation.
